Experimental data taken from US10668057B2, “Compositions and methods for inducing conformational changes in cereblon and other E3 ubiquitin ligases” (Celgene Corporation, priority 2014, dated 2020).

Columns and labels:
[1] = test system: TMD8 (ABC) or Karpas 422 (GCB) cells; assay: 3H-thymidine incorporation proliferation assay, co-treatment with lenalidomide; assay type: cell-based; details: for anti-proliferative effects on co-treatment with lenalidomide: co-treatment with 10 μM lenalidomide
[2] = molecular target: T1, CRBN (Homo sapiens, UniProt Q96SW2); assay: Thalidomide analog affinity bead competition, U266 cell extracts; assay type: binding; parameters: extracts prepared from U266 multiple myeloma cells; endogenous in cells; host or cells: U266 multiple myeloma cells (cell extract); details: U266 MM cell extracts, competition with thalidomide analog affinity beads
Experimental: Immunoblot analysis of extracts prepared from U266 multiple myeloma cells and pre-incubated with vehicle DMSO (D), Pomalidomide (Pom) or CC-885 at the indicated concentrations, and bound to thalidomide analog affinity beads, washed and eluted with SDS buffer as previously described (Ito et al, 2010; Lopez-Girona et al, 2012). Samples were subjected to SDS-PAGE and immunoblot analysis using anti-CRBN 65-76 (1:10,000 dilution; Red signal) and anti-DDB1 (Cell Signaling) (1:2,000 dilution; Green signal). A LI-COR Odissey system was used to quantify CRBN band density and relative amounts of CRBN were determined by averaging at least three DMSO controls and expressing CRBN in each competition sample as percent inhibition of CRBN protein relative to the averaged controls as 100% binding. […] Cell proliferation assay of DF15 (sensitive), DF15R (resistant; CRBNnull) cells treated with a dose response of CC-885. Assays were done in triplicate and error bars represent s.d. Data for each cell line was normalized to treatment with vehicle (DMSO). […] Cell proliferation assay of DF15 (sensitive), DF15R (resistant; CRBNnull), DF15R-hCRBNWT (human CRBN), DF15R-RFP cells treated with a dose response of CC-885. […] Assays were done in triplicate and error bars represent s.d. Data for each cell line was normalized to treatment with vehicle (DMSO). […]

[3] = test system: panel of tumor cell lines; assay: Potency across a panel of tumor cell lines; assay type: cell-based
Experimental: The potency of CC-885 was assessed across a panel of tumor cell lines, including B-lymphoma, breast, CNS, colon, kidney, leukemia, lung, melanoma, multiple myeloma, ovary and prostate.

[4] = test system: H929; assay: Apoptosis in multiple myeloma cell line H929; assay type: cell-based; details: 0.01 nM to 1000 nM, assessed at 24 hrs
Experimental: The multiple myeloma cell line, H929, was cultured and treated with CC-885 or other CMA analogs at various concentrations from 0.01 nM to 1000 nM. Apoptosis was assessed at 24 hrs. later.

[5] = test system: MDA-MB-231; assay: Growth inhibition and pro-apoptotic activity in breast cancer cells treated with CRBN siRNA; assay type: cell-based; details: CRBN siRNA vs negative control
Experimental: Breast cancer cells (MDA-MB-231) were treated with CRBN siRNA or a negative control. CC-885 was added at a concentration between 0 to 100 μM, and CRBN levels were assessed at 48 hours post treatment.

[6] = test system: DF15 (sensitive), DF15R (resistant; CRBNnull) cells; assay: Cell proliferation assay of DF15, DF15R and DF15R-derived cells with CC-885; assay type: cell-based
[7] = mice and rats; cited from earlier work
[8] = molecular target: T2, CRBN^E377V (Homo sapiens, UniProt Q96SW2, E377V); assay: Thalidomide analog-coupled affinity bead assay, DF15R CRBN^E377V cell extracts; assay type: binding; details: preincubation of cell extracts with free compound, comparable to CRBN^WT
T2 construct: Cell lines re-expressing RFP or full length CRBN wild type or E377V mutant; expressed in transfected cells; host or cells: DF15R (CRBN-deficient myeloma line), lentiviral system; cell extract
Experimental: (§1) DF15, DF15R or DF15R derived cell line extracts were prepared in NP 40 lysis buffer (0.5% NP40, 50 mM Tris HCl (pH 8.0), 150 mM NaCl, 0.5 mM DTT, 0.25 mM PMSF, 1× protease inhibitor mix (Roche, Indianapolis, Ind.) at approximately 2×10^8 cells per ml […]. Cell debris and nucleic acids were cleared by centrifugation (14,000 rpm 30 min 4° C.). In competition experiments 0.5 ml (3-5 mg protein) aliquots of the resulting extracts were preincubated (15 min room temp.) with 5 μl DMSO (control) or 5 μl compound at varying concentrations in DMSO. Thalidomide analog-coupled beads (0.3-0.5 mg) were added to protein extracts and samples rotated (2 hours, 4° C.). Beads were washed three times with 0.5 ml NP40 buffer, and then bound proteins were eluted with SDS-PAGE sample buffer.
To probe the function of the residues proximal to the bound IMiD® drug, we performed mutagenesis of residue E377 to valine in the human CRBN sequence and re-expressed the protein using a lentiviral system in DF15R cells. Cell extracts from this line were used to assay the ability of CRBN^E377V to bind IMiD® compound.

[9] = molecular target: T1, CRBN; details: in vitro; cited from earlier work
[10] = molecular target: T3, CRBN^WT (Homo sapiens, UniProt Q96SW2); assay: Thalidomide analog-coupled affinity bead assay, DF15R CRBN^WT cell extracts; assay type: binding; details: preincubation of cell extracts with free compound
T3 construct: re-express full length wild type (CRBN^WT), W386A (CRBN^W386A) or W400A (CRBN^W400A) mutant versions of CRBN; FLAG; expressed in transfected cells; host or cells: DF15R (CRBN-deficient myeloma line), lentiviral transduction, puromycin selection; cell extract
Experimental: as §1

[11] = test system: DF15R cells; assay: Cell proliferation assay of DF15R cells re-expressing CRBN wild type or mutants; assay type: cell-based
[12] = test system: H929 and U266; assay: Cell viability in CRBN inducible shRNA knockdown myeloma cells; assay type: cell-based; details: CRBN inducible knockdown vs shControl, 5 day treatment
From the text: FIG. 25A: An inducible shRNA construct targeting CRBN or a control construct was transduced into the multiple myeloma cell lines H929 and U266. Inducible shRNA expression (marked by turbo-RFP) was monitored by flow cytometry over a period of 1 to 9 days as indicated in the histograms (Top row). […] FIG. 25B: CRBN protein expression was quantified by Western blotting. […] Data are shown as mean of three independent experiments±s.d.
Inducible shRNA constructs targeting CRBN or a control construct (Open Biosystems) were transduced using spinoculation methodology into the multiple myeloma cell lines H929 and U266. Stably transduced cells were selected with puromycin. Inducible shRNA expression (marked by RFP) was monitored by fluorescence microscopy and flow cytometry using 1 μg/mL doxycycline. CRBN protein expression was quantified by Western blotting. Cell proliferation and viability were assessed by 7AAD/flow cytometry assays. 6.9.2.5 Immunoblot and Immunohistochemistry

[13] = test system: IL-2; assay: IL-2 induction in mouse splenocytes; assay type: cell-based
From the text: FIGS. 26A-26B show IL2 costimulation by pomalidomide. FIG. 26A: Co-stimulation of IL2 release by pomalidomide in human PBMCs treated with anti-CD3. Data are shown as mean±s.d. FIG. 26B: Costimulation of IL2 release by anti-CD28 (squares) or pomalidomide (circles) in mouse PBMC treated with anti-CD3. Data are shown as mean±s.d.

Q: Which “anti-proliferative effects on co-treatment with lenalidomide” value [1] does the source give for `Cc1ccc(NC(=O)NCc2ccc3c(c2)CN(C2CCC(=O)NC2=O)C3=O)cc1Cl` (stereo not shown) [CC-885, 1-(3-chloro-4-methylphenyl)-3-((2-(2,6-dioxopiperidin-3-yl)-1-oxoisoindolin-5-yl)methyl)urea] here?
A: Its value is “blocks anti-proliferative effects”.

Q: And the “binding to CRBN protein” value [2]?
A: The value was “binds”.

Q: What about the “potency across tumor cell line panel” value ([3]; B-lymphoma, breast, CNS, colon, kidney, leukemia, lung, melanoma, multiple myeloma, ovary and prostate) of the same molecule?
A: The value was “potent”.

Q: And the “Therapeutic Index” value ([3]; toxic effects at low doses)?
A: Its value is “low”.

Q: And the early apoptosis [4]?
A: Its early apoptosis is “induced early apoptosis”.

Q: And the “growth inhibition, dependence on CRBN” value [5]?
A: Its value is “CRBN is required”.

Q: What about the “pro-apoptotic activity, dependence on CRBN” value [5] of the same molecule?
A: Its value is “CRBN is required”.

Q: What about the “anti-proliferative activity after re-expression of human CRBN” value ([6]; DF15R-hCRBNWT) of the same molecule?
A: Its value is “recues CC-885 anti-proliferative activity”.

Q: And the “anti-proliferative activity, dependence on CRBN” value ([6]; DF15 vs DF15R (CRBNnull))?
A: Its value is “CRBN is required”.

Q: With `O=C1CCC(N2C(=O)c3ccccc3C2=O)C(=O)N1` (racemic) [thalidomide] as the molecule, how does the teratogenic effects [7] read?
A: The teratogenic effects was “insensitive”.

Q: And the “competition for CRBN^E377V binding to thalidomide analog-beads” value [8]?
A: Its value is “competed”.

Q: And the “auto-ubiquitination of CRBN” value [9]?
A: Its value is “able to inhibit”.

Q: What about the “competition for CRBN binding to thalidomide analog-beads” value [10] of the same molecule?
A: The value was “competed for binding to the beads”.

Q: For `Nc1cccc2c1C(=O)N(C1CCC(=O)NC1=O)C2=O` (stereo not shown) [pomalidomide], which “sensitivity to antiproliferative effect” value ([11]; DF15R re-expressing CRBN^E377V) is on record?
A: Its value is “unable to rescue sensitivity”.

Q: What about the antiproliferative effect ([11]; DF15R re-expressing CRBN^WT) of the same molecule?
A: The antiproliferative effect was “regained antiproliferative effect”.

Q: And the “competition for CRBN^E377V binding to thalidomide analog-beads” value [8]?
A: The value was “competed”.

Q: What about the anti-proliferative effects [12] of the same molecule?
A: The anti-proliferative effects was “reduced anti-proliferative effects”.

Q: And the “competition for CRBN binding to thalidomide analog-beads” value [10]?
A: The value was “competed for binding to the beads”.

Q: What about the IL-2 inducing effects [13] of the same molecule?
A: Its IL-2 inducing effects is “resistant”.

Q: Which “anti-proliferative effects on co-treatment with lenalidomide” value [1] does the source give for `Cc1nc2cccc(N)c2c(=O)n1C1CCC(=O)NC1=O` (stereo not shown) [Compound A, 3-(5-amino-2-methyl-4-oxo-4H-quinazolin-3-yl)-piperidine-2,6-dione] here?
A: Its value is “blocks anti-proliferative effects”.

Q: Which teratogenic effects [7] does the source give for `Nc1cccc2c1CN(C1CCC(=O)NC1=O)C2=O` (stereo not shown) [lenalidomide, 3-(4-amino-1-oxo-1,3-dihydro-isoindol-2-yl)-piperidine-2,6-dione] here?
A: Its teratogenic effects is “insensitive”.

Q: And the “competition for CRBN” value ([1]; against Compound A and CC-885)?
A: The value was “competes”.
